Assay results: ChEMBL document CHEMBL1201862, “PubChem BioAssay data set” (2004)
Activity calls are given as the source filed them.

Assays:
[1] = tested on: Streptococcus; test: Group A Streptococcus viability loss, dose response, counter-screen for streptokinase expression inhibitor project, luminescence, BacTiterGlo (AID 1915); assay type: functional, organism-based;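 note: potency for reduction of bacterial viability or growth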
[2] = HEK293T cell cytotoxicity, dose response, cytotoxicity control for HIV Vif inhibitor project, cherry-picks (AID 652208); assay type: functional, cell-based
[3] = control 3'UTR Renilla luciferase suppression, dose response, counter-screen for Shn3 inhibitor project, cell-based, Clone20-Shn3RL, cherry-picked (AID 624133); assay type: functional
[4] = HepG2 cell cytotoxicity, dose response, cytotoxicity control for Shn3 inhibitor project, CellTiter-Glo, cherry-picked (AID 624134); assay type: functional, cell-based
[5] = target: T1, Replicative DNA helicase DnaB (Mycobacterium tuberculosis, UniProt P9WMR3); test: DnaB intein splicing inhibitors, dose response, biochemical, cell-free fluorescence (AID 449749); assay type: functional
T1 sequence (P9WMR3 whole entry): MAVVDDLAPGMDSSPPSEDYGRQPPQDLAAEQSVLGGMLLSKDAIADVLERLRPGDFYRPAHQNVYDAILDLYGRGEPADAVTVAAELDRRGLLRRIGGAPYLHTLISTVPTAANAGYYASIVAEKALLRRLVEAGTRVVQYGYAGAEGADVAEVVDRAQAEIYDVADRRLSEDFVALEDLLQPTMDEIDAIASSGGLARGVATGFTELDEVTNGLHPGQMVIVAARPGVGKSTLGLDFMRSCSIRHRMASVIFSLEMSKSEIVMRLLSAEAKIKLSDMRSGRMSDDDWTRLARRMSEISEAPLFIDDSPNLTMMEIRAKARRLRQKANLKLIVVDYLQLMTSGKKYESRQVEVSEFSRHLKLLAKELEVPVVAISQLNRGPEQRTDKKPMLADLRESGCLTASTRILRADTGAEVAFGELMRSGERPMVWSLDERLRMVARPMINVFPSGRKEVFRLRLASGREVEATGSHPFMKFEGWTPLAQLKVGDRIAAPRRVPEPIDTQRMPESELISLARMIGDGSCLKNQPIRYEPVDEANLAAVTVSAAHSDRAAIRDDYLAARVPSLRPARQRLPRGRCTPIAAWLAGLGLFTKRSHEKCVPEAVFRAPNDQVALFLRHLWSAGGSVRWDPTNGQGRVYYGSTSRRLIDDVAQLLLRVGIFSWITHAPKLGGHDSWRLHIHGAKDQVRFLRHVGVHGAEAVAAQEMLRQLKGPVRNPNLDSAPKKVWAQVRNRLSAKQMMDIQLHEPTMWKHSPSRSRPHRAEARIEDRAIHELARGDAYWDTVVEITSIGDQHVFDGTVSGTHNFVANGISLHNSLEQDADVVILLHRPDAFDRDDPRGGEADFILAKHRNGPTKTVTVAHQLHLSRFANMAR

[6] = target: T2, Streptokinase A (Streptococcus pyogenes serotype M1, UniProt P10520); test: S. pyogenes streptokinase expression inhibitors, potency, dose response, plasminogen activation absorbance, OD405 (AID 1914); assay type: functional, Streptococcus pyogenes M1 GAS;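 note: secreted streptokinase activity via plasminogen activation per viability signal from cell pellet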
T2 sequence (P10520 whole entry): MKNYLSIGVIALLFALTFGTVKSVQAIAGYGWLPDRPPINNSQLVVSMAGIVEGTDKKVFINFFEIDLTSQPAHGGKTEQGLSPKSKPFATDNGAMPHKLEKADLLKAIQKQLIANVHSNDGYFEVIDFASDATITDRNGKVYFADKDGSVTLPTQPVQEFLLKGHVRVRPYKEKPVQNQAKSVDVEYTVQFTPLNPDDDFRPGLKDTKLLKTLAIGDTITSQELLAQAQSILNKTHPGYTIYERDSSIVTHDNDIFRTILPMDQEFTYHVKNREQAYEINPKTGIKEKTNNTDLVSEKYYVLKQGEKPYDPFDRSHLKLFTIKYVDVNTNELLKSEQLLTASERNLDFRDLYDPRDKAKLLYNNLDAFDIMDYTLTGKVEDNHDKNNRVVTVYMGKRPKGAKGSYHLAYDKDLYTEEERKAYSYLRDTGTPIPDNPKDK

[7] = NIH-3T3 fibroblast cytotoxicity, dose response, cytotoxicity control, cell-based, fluorescence, Alamar Blue, secondary assay (AID 2327); assay type: functional;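 note: NIH-3T3 mouse fibroblasts cultured with fluconazole at 8 µg/mL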
[8] = target: T3, Polyadenylate-binding protein 1 (Homo sapiens, UniProt P11940); test: PABP1 MLLE–PAM2 interaction inhibitors, dose response, miRNA deadenylation inhibitor project, biochemical, fluorescence polarization, Cy5-PAM2 peptide, secondary (AID 602260); assay type: functional; conditions: read-out: IC50_Mean
T3 sequence (P11940 whole entry): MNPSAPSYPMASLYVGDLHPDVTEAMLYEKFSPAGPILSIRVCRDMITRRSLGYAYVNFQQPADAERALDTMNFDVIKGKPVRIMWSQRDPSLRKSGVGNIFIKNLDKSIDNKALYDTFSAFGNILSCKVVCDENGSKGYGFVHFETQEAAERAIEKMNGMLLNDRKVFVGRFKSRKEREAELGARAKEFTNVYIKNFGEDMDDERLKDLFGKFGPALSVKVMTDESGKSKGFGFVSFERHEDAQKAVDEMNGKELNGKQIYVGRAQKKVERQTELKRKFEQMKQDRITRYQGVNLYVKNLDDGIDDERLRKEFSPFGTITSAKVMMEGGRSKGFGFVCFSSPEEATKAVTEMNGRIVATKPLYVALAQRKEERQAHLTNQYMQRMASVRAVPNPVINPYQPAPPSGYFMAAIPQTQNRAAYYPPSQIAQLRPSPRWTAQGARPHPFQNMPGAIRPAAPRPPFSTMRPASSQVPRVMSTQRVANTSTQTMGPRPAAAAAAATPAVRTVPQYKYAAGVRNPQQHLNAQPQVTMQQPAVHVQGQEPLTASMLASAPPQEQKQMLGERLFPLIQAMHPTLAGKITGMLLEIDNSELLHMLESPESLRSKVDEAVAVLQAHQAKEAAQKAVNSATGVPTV

[9] = Shn3 3'UTR reporter inhibitors, dose response, cell-based, Clone20 osteoblasts, firefly luciferase, cherry-picked (AID 624132); assay type: functional;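 note: firefly luciferase luminescence from reporter carrying the Shn3 3'UTR in osteoblasts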
[10] = target: T4, Protein RecA (Mycobacterium tuberculosis, UniProt P9WHJ3); test: Fluorescence Cell-Free Homogeneous Dose Retest to Identify Inhibitors of RecA-Intein Splicing Activity. [Related pubchem assays (depositor defined):AID2097, AID2223, AID489010, AID492950]; assay type: functional
T4 sequence (P9WHJ3 whole entry): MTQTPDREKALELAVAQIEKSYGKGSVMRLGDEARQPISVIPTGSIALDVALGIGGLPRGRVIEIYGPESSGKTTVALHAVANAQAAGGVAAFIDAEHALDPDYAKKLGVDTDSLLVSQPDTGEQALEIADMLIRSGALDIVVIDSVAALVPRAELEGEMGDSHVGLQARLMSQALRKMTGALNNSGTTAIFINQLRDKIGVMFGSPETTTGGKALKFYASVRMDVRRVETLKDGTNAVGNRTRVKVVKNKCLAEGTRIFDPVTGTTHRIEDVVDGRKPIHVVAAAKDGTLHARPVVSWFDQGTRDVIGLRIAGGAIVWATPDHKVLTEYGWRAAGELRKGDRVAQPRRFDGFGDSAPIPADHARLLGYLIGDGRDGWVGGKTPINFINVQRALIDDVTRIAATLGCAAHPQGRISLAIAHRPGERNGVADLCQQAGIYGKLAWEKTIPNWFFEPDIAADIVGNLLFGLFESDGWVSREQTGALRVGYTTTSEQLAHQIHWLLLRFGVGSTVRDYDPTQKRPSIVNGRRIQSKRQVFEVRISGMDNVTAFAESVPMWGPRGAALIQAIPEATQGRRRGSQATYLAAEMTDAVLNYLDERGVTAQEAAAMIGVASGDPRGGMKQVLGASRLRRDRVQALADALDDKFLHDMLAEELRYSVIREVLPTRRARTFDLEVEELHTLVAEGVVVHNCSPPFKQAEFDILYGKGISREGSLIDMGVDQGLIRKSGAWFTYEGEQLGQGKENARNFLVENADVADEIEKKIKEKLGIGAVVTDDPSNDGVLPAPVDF

[11] = target: Heat shock protein HSP 90-alpha (Homo sapiens, UniProt P07900); assay type: functional, organism-based
[12] = C. albicans growth with fluconazole, confirmation, fluorescence, retest (AID 2467); assay type: functional, cell-based
[13] = target: T3, Polyadenylate-binding protein 1; test: PABP1 MLLE–PAM2 binding inhibitor potency, dose response, biochemical, fluorescence polarization, FITC-PAM2 peptide (AID 602259); assay type: functional; conditions: read-out: IC50_Mean
[14] = tested on: Streptococcus sp. 'group A'; test: growth inhibition of control SK(-) GAS strain, dose response, counter-screen for streptokinase expression inhibitor project, luminescence, kanamycin, BacTiterGlo, confirmation (AID 1900); assay type: functional, organism-based
[15] = target: Albumin (Bos taurus, UniProt P02769); test: Counterscreen for inhibitors of T-cell receptor (TCR)-CD3 interaction: Fluorescence-based biochemical high throughput dose response assay to identify inhibitors of T-cell receptor (TCR)-CD3 interaction using a TAMRA-labeled BSA probe.; assay type: functional
Albumin, sequence (P02769 whole entry): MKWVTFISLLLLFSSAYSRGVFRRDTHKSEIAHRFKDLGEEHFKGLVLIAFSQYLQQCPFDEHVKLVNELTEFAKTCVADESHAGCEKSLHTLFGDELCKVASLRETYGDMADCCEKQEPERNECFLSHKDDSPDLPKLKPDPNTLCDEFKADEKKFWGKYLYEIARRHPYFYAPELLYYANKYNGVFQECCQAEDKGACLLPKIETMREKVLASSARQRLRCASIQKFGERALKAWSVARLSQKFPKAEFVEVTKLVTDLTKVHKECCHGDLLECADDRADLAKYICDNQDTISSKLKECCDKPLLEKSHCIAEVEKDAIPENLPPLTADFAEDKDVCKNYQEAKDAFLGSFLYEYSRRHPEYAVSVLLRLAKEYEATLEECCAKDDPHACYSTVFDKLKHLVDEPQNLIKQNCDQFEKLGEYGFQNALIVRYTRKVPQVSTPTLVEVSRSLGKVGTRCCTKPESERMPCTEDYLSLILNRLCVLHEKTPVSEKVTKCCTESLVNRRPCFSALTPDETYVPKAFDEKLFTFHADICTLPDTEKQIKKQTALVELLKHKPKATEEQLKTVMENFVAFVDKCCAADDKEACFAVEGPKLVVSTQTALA

[16] = cells; assay type: functional, cell-based
[17] = target: T5, Trace amine-associated receptor 1 (Homo sapiens, UniProt Q96RJ0); test: Fluorescence-based cell-based high throughput dose response assay to identify agonists of the human trace amine associated receptor 1 (TAAR1).; assay type: functional
T5 sequence (Q96RJ0 whole entry): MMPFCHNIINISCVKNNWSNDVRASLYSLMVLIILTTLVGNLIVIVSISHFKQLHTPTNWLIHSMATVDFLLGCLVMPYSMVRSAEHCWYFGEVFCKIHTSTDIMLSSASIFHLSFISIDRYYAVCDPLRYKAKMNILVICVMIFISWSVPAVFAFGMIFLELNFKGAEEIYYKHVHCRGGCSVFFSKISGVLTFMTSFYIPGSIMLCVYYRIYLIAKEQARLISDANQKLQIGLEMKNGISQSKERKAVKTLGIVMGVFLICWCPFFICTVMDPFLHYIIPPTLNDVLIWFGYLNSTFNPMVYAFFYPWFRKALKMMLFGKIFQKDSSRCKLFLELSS

[18] = cells; assay type: functional, cell-based; remark: listed apart in the source
[19] = target: T5, Trace amine-associated receptor 1; test: Counterscreen for agonists of the human trace amine associated receptor 1 (hTAAR1): Fluorescence-based cell-based high throughput dose response assay to identify hTAAR1 agonist that also desensitize TAAR1 receptor response.; assay type: functional

Cc1ccc(C(c2cc(Cl)c3cccnc3c2O)N2CCN(C)CC2)cc1 (centres undefined)
EC50 [1]: 15.3 µM (active) | AC50 [2]: > 52 µM (inactive) | AC50 [3]: 16.4 µM (active) | AC50 [4]: 35.2 µM (active) | AC50 [5]: > 380 µM (inactive) | EC50 [6]: > 150 µM (not active) | EC50 [7]: 3.84 µM (inconclusive) | IC50 [8]: > 66 µM (inactive) | AC50 [9]: 5.54 µM (active) | EC50 [10]: 1.96 µM (active) | AC50 [11]: 1.59 µM (active) | EC50 [12]: 0.374 µM (active) | IC50 [13]: > 66 µM (inactive) | EC50 [14]: 1.49 µM (active)

CCC1=NN(C(=O)c2cccc([N+](=O)[O-])c2)C(O)(c2ccc(C)cc2)C1 (centres undefined)
IC50 [15]: > 94.1 µM (inactive)

C/C(=N\CCc1ccccc1)C1=C(O)CCC1=O
EC50 [16]: > 29.9 µM (inactive) | EC50 [17]: 1.94 µM (active) | IC50 [18]: > 29.9 µM (inactive) | IC50 [19]: 8.63 µM (active)
